The values below come from PubChem BioAssay AID449764 (Southern Research Specialized Biocontainment Screening …, 2010).

The assay deals with Mycobacterium tuberculosis H37Rv growth inhibition, no glycerol. The assay can be described thus: Confirmatory growth inhibition assay, Mycobacterium tuberculosis H37Rv, absence of glycerol (AID 449764).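 As to all read-outs here: growth read after 7 days of incubation.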 The settings on record: for IC90: measured here: IC90 growth inhibition.

As for `Cn1nc([N+](=O)[O-])nc1Sc1ccc(C(C)(C)C)cc1`, the 50% inhibitory concentration (IC50) (as a rule, the midpoint of a concentration-inhibition curve) was 8.88 µM and the 90% effect concentration (IC90) (as a rule, the concentration at which the effect reaches the 90% level) was 17.1 µM.
In the case of `COc1ccc(C2=Nn3c(nnc3-c3ccccc3F)SC2)cc1OC1CCCC1`, the IC50 was 19.5 µM and the concentration for an effect of 90% (IC90) is 25.4 µM.
For `CC(C)C1N=C(c2ccc3c(c2)OCO3)CC(c2ccccc2O)N1` (stereo unspecified), the IC50 was 44.7 µM and the concentration for an effect of 90% (IC90) was 50.9 µM.
Consider `O=C(NC1CCN(Cc2ccccc2)CC1)c1cccc(S(=O)(=O)Nc2ccc(SC(F)F)cc2)c1`, for which the 50% inhibitory concentration (IC50) was 19.3 µM and the IC90 amounted to 27.9 µM.
For `CC(Oc1ccc(F)cc1)C(=O)Nc1sc2c(c1C(=O)NCc1cccnc1)CCCC2` (stereo unspecified), in that order: 43.6 µM and 86 µM.
In the case of `CCOC(=O)c1ccc(NC2=CC(=O)C(=O)c3ccccc32)cc1`, the half-inhibitory concentration (IC50) was 37.7 µM and the 90% effect concentration (IC90) was found to be 48.3 µM.
Turning to `C=CCc1c(C)nc(C)nc1N/N=C/c1ccccc1O`, the 50% inhibitory concentration (IC50) is 4.61 µM and the IC90 was 8.85 µM.
For `CC(C)[C@H](CO)N(Cc1cccc(F)c1)c1nc(Nc2cccc(Cl)c2)c2ncn(C(C)C)c2n1`, in that order: 37.5 µM and 57.4 µM.
With `CCOC(=O)CSc1nc(N)c(C(=O)Nc2ccc(N(C)C)cc2)s1`, the IC50 was 4.23 µM and the IC90 worked out at 9.77 µM.
Consider `CCn1c(NC(=O)c2nn(C)cc2Br)nc2ccccc21`, for which the half-maximal inhibitory concentration (IC50) is 9.5 µM and the IC90 was found to be 16.8 µM.
Turning to `Cc1nn(-c2ccccc2)nc1C(=O)c1c(C)[nH]n(-c2ccccc2)c1=O`, the IC50 was 17.5 µM and the IC90 turned out to be 23.2 µM.
For `CCc1ccc2oc(-c3cc(N=Cc4cccc(OC)c4O)ccc3O)nc2c1`, the concentration for half-maximal inhibition (IC50) was 63.8 µM and the IC90 came out at 95 µM.
Consider `CCOC(=O)Cn1nc(-c2ccccc2)nc1-c1ccccc1`, for which the half-inhibitory concentration (IC50) is 13.1 µM and the 90% effect concentration (IC90) was 29.4 µM.
On to `CC(=O)Nc1ccc(N2C(C(C)=O)=NN(c3ccc(Cl)cc3)C2c2sccc2C)cc1` (stereo unspecified), for which the IC50 is 66.6 µM and the IC90 is 83.9 µM.
On to `O=C(CCC(=O)OCc1ccc(C(=O)Oc2ccc(Cl)cc2)cc1)Nc1ccccc1`, for which the half-maximal inhibitory concentration (IC50) is 80.2 µM and the concentration for an effect of 90% (IC90) was greater than 100 µM.
Regarding `C=C1C(=O)[C@@]23[C@H](O)C[C@@H]4C(C)(C)CC[C@H](O)[C@@]4(C)[C@@H]2CC[C@@H]1[C@H]3O`, the IC50 was 8.35 µM and the IC90 is 11.3 µM.
Regarding `O=[N+]([O-])c1ccc(O)c(-c2cc(C(F)(F)F)nc(-c3ccccc3)n2)c1`, the 50% inhibitory concentration (IC50) is 20.4 µM and the 90% effect concentration (IC90) stood at 22.1 µM.
Consider `CCn1c(SCC(=O)OC2CCCCC2)nc2ccccc2c1=O`, for which the 50% inhibitory concentration (IC50) was 40.3 µM and the IC90 was found to be 55.1 µM.
In the case of `COC(=O)C(CCSC)NC(=O)c1cn(-c2ccc(OC)cc2)c(=O)c2ccccc12` (stereo unspecified), the IC50 was 24.3 µM and the 90% effect concentration (IC90) was greater than 25 µM.
Regarding `O=C(CSc1nc2ccccc2nc1N1CCOCC1)N1CCN(c2ccccc2)CC1`, the IC50 was 11.8 µM and the concentration for an effect of 90% (IC90) came to 14 µM.
As for `Oc1ccc(CN2CCc3ccccc3C2)c2cccnc12`, the half-inhibitory concentration (IC50) was 72.7 µM and the concentration for an effect of 90% (IC90) is greater than 100 µM.
Consider `O=C(/C=C/c1ccc([N+](=O)[O-])cc1)NC1CC2CCC1C2` (stereo unspecified), for which the half-maximal inhibitory concentration (IC50) was 68.7 µM and the IC90 is greater than 100 µM.
Regarding `COc1nc(-c2ccccc2)cc(-c2ccc(OC)c(OC)c2)n1`, the half-inhibitory concentration (IC50) is 86.4 µM and the IC90 is greater than 100 µM.
For `CC(=O)c1sc(NC(=O)c2cc(=O)c3ccccc3o2)nc1C` the same measures were 18.4 µM and greater than 100 µM.
As to `O=C(O)c1[nH]c(=O)[nH]c(=O)c1F`, the 50% inhibitory concentration (IC50) is 5.47 µM and the concentration for an effect of 90% (IC90) came out at 14.1 µM.
Take `Cc1ccc(C(=O)OCc2nnc(-c3ccccc3)o2)s1`: the IC50 is 20.4 µM and the concentration for an effect of 90% (IC90) is 32.2 µM.
Consider `O=C1/C(=C/Nc2ccc3c(c2)OCO3)CCc2ccccc21`, for which the half-maximal inhibitory concentration (IC50) was 74.7 µM and the 90% effect concentration (IC90) was greater than 100 µM.
In turn, `Oc1ccc2ccccc2c1C1Nc2cccc3cccc(c23)N1` returned an IC90 greater than 100 µM.
As for `COC(=O)C1=C(c2ccc(OCc3ccccc3)cc2)C[C@@H]2CC[C@H]1N2C(=O)NC1CCN(Cc2ccccc2)CC1`, the half-inhibitory concentration (IC50) is 25.3 µM and the 90% effect concentration (IC90) amounted to 29.1 µM.
For `COc1ccc(-c2oc3cccnc3c2/C=C/c2ccc(OC)c(OC)c2)cc1` the same measures were 56.6 µM and greater than 100 µM.
Consider `C(=N\Nc1ccc2ccccc2n1)/c1ccc2c(c1)OCCO2`, for which the 50% inhibitory concentration (IC50) is 5.03 µM and the IC90 was 7.13 µM.
Regarding `COc1cc2ccccc2cc1C(=O)Nc1ccc(Cc2ccncc2)cc1`, the IC50 is 18.9 µM and the concentration for an effect of 90% (IC90) is 27.3 µM.
For the compound `O=c1cc(N=Nc2ccc(Cl)cc2)[nH]c(=O)[nH]1`, the IC50 is 78.9 µM and the 90% effect concentration (IC90) was greater than 100 µM.
On to `CCCc1cc(-c2nc(N)ncc2-c2ccc3c(c2)OCCCO3)c(O)cc1OC`, for which the IC50 was 54.3 µM and the 90% effect concentration (IC90) worked out at 81 µM.
Take `O=C(CSC1=Nc2ccccc2C2=NC(c3ccccc3)C(=O)N12)NC1CCCCC1` (stereo unspecified): the IC50 is 1.03 µM and the IC90 is 1.73 µM.
Take `Cc1ccc(C)c(-c2nnc(NC(=O)C3=COCCO3)o2)c1`: the concentration for half-maximal inhibition (IC50) was 13.9 µM and the 90% effect concentration (IC90) came out at 30.2 µM.
On to `COC(=O)c1c(NC(=S)NN2CCN(C)CC2)sc2c1CCC(C)C2` (stereo unspecified), for which the concentration for half-maximal inhibition (IC50) was 22.8 µM and the IC90 amounted to 26.6 µM.
For `Cc1ccc(NC(=O)COc2ccc(-n3ccnc3)cc2)cc1Cl` the same measures were 44.5 µM and 58.7 µM.
For the compound `COC(=O)c1ccc2c(c1O)C(=O)c1ccccc1C2=O`, the concentration for half-maximal inhibition (IC50) is 83.6 µM and the 90% effect concentration (IC90) amounted to 89.4 µM.
As for `CC(C)NC(=O)c1onc(CSc2ccc(F)c(F)c2)c1C(=O)O`, the 50% inhibitory concentration (IC50) was 17.8 µM and the 90% effect concentration (IC90) was 22.9 µM.
For `CCc1cccc2c(=O)c(C(=O)N3CCOCC3)c[nH]c12`, in that order: 15.3 µM and 22.9 µM.
On to `FC(F)(F)c1cc(CO[C@@H]2CCCN[C@@H]2c2ccccc2)cc(C(F)(F)F)c1`, for which the 50% inhibitory concentration (IC50) is 27.4 µM and the concentration for an effect of 90% (IC90) amounted to 38.2 µM.
Take `COc1ccc(C=C2C=C(C(C)(C)C)C(=O)C(C(C)(C)C)=C2)cc1OC`: the concentration for half-maximal inhibition (IC50) is 4.94 µM and the 90% effect concentration (IC90) came to 7.13 µM.
`COc1ccc(Nc2nc(N)c([N+](=O)[O-])c(NC3CCCCC3)n2)cc1`: the IC50 is 18.3 µM and the concentration for an effect of 90% (IC90) was 26.3 µM.
For `COc1ccc(Cc2nc3ccc(C(=O)NCCCSC)cc3o2)cc1OC`, in that order: 43.1 µM and 65.2 µM.
For the compound `CN(C)CCCNC(=O)c1ccc(-c2nc(-c3ccc(Cl)cc3)cs2)cc1`, the 50% inhibitory concentration (IC50) is 26.4 µM and the 90% effect concentration (IC90) amounted to 33.8 µM.
On to `O=C(CN1CCN(c2ccccc2O)CC1)Nc1ccccc1C(=O)NCCc1ccccc1`, for which the IC50 is 72.7 µM and the IC90 was greater than 100 µM.
For `Cc1cc(=O)oc2c(C)c(OCC(=O)N3CCN(C(=O)C4COc5ccccc5O4)CC3)ccc12` (stereo unspecified), the concentration for half-maximal inhibition (IC50) is 77.1 µM and the IC90 is greater than 100 µM.
Regarding `Cc1ccccc1-n1sc2cc(F)ccc2c1=O`, the half-inhibitory concentration (IC50) is 22 µM and the IC90 stood at 24.6 µM.
As for `Cc1ccc(Cl)cc1N1CCN(CC(=O)NC2CCCc3ccccc32)CC1` (stereo unspecified), the IC50 is 35.6 µM and the 90% effect concentration (IC90) was found to be 51.1 µM.
For `COc1ccc(C(=O)COC(=O)[C@H](C)Nc2ccc(C(F)(F)F)cc2[N+](=O)[O-])cc1`, in that order: 18.1 µM and greater than 25 µM.
For `COC(=O)CSc1nnc(-c2sc3cc(OC)ccc3c2Cl)n1C`, the IC50 is 35.8 µM and the IC90 is greater than 50 µM.
As for `C=C(CCC(=O)c1ccccc1)C(=O)c1ccccc1`, the half-maximal inhibitory concentration (IC50) was 18 µM and the concentration for an effect of 90% (IC90) is 25.1 µM.
On to `O=C(NNc1nc(-c2ccccc2)cs1)c1ccccc1`, for which the IC50 was 40.2 µM and the IC90 is greater than 100 µM.
Turning to `CC1=CC(=O)C(C(C)C)=C/C1=N/OS(=O)(=O)c1ccccc1`, the IC50 is 4.28 µM and the IC90 came to 7.65 µM.
With `Cc1ccc(-c2noc(-c3cc4ccccc4oc3=O)n2)cc1`, the IC50 was 11.4 µM and the IC90 was greater than 100 µM.
In the case of `Cc1cc(-c2nnc3n2CCCCC3)c(C)n1-c1ccccc1`, the half-inhibitory concentration (IC50) is 45.3 µM and the concentration for an effect of 90% (IC90) came out at 73.8 µM.
Turning to `O=[N+]([O-])c1cc(Cl)c(O)c(-[n+]2c(-c3ccccc3)cc(-c3ccccc3)cc2-c2ccccc2)c1`, the IC50 was 4.63 µM and the IC90 worked out at 7.3 µM.
Take `O=C(CCl)N1CCCC1c1ccc2c(c1)OCCO2` (stereo unspecified): the 50% inhibitory concentration (IC50) was 8.76 µM and the 90% effect concentration (IC90) amounted to 14.1 µM.
As for `COc1cc(N)c(Cl)cc1C(=O)N[C@H]1CCN(CCCOc2ccc(F)cc2)C[C@H]1OC`, the concentration for half-maximal inhibition (IC50) is 48.7 µM and the 90% effect concentration (IC90) amounted to 89 µM.
For `COc1ccc(NC(=O)CSC2=C(C#N)C(c3ccco3)C(C(=O)Nc3nc4ccccc4s3)=C(C)N2)cc1` (stereo unspecified), the IC50 is 7.09 µM and the IC90 was found to be 16.4 µM.
Turning to `Cc1nc([N+](=O)[O-])c(Br)n1CC(=O)c1ccc2ccccc2c1`, the IC50 was 11.2 µM and the concentration for an effect of 90% (IC90) was found to be 12.7 µM.
In the case of `CC(CC(=O)Nc1ccc(Cl)c([N+](=O)[O-])c1)c1ccccc1` (stereo unspecified), the 50% inhibitory concentration (IC50) is 18 µM and the concentration for an effect of 90% (IC90) worked out at 29.4 µM.
Consider `CCCCCCCCn1cnc2c(N)c(C)c(C)cc21`, for which the IC50 was 59.8 µM and the IC90 came to 78.3 µM.
For `C=CCOc1ccc2c(c1)C(=NO)c1cc(OCC=C)ccc1-2` the same measures were 28 µM and greater than 100 µM.
In the case of `CC(C)Oc1ccc(C(=O)N/N=C/c2ccc(-c3ccc(S(=O)(=O)Nc4ncccn4)cc3)o2)cc1`, the IC50 was 55.8 µM and the concentration for an effect of 90% (IC90) stood at 89.7 µM.
As for `Cc1ccc(-c2csc(N3CCN(CCCn4c(-c5ccncc5)nc5ccccc54)CC3)n2)cc1`, the IC50 was 29.7 µM and the concentration for an effect of 90% (IC90) is 48.3 µM.
For `CCc1ccc2[nH]c(=O)c(CN(CCCN3CCOCC3)C(=O)Nc3cccc(Cl)c3)cc2c1`, the half-inhibitory concentration (IC50) was 33.7 µM and the concentration for an effect of 90% (IC90) stood at 40.5 µM.
In the case of `Cc1ccc(-n2cccc2C(=S)N=P(N(C)C)(N(C)C)N(C)C)cc1`, the IC50 is 24.6 µM and the 90% effect concentration (IC90) is 26.1 µM.
Take `COc1ccc(N/N=C(/N=Nc2nc(C)cc(=O)[nH]2)c2ccccc2)cc1`: the 50% inhibitory concentration (IC50) was 5.64 µM and the 90% effect concentration (IC90) is 6.4 µM.
As to `CCOc1ccc(Nc2cc(C)nc(-n3nc(C)cc3C)n2)cc1`, the half-inhibitory concentration (IC50) is 2.27 µM and the IC90 was 4.89 µM.
